Assays:
[1] = system: rat; design: method as in May et al, 2011; Fielden et al, 2015; conditions: ref May et al, 2011; Fielden et al, 2015; cited from earlier work
[2] = system: CatD; design: method as in Fielden et al, 2015; conditions: ref Fielden et al, 2015; cited from earlier work
[3] = system: C57/BL6 mice; experiment: Hair depigmentation study, 8 weeks dosing; type: in vivo, mouse; conditions: for % Aβ40 in brain relative to vehicle alone: steady state
Protocol: Compounds were either mixed in feed or given as a suspension orally. […] Vehicle or compounds were given orally in a volume of 10 ml/kg once daily (mornings) for 8 weeks. Vehicle: 0.1% Tween‐80 in 0.5% methylcellulose in water. […] The vehicle group was treated with food pellets containing no compound. The β1 antibody was dosed 0.5 mg/kg body weight, once weekly intraperitoneally, diluted in 90 nM NaCl, 50 nM Tris pH 7.1.

[4] = system: APP‐transgenic mice; design: method as in Beckmann et al, 2016; Villarreal et al, 2017; conditions: ref Beckmann et al, 2016; Villarreal et al, 2017; cited from earlier work

For `CC1(C#Cc2cnc3c(c2)[C@]2(COC(N)=N2)c2cc(-c4cccnc4F)ccc2O3)COC1` [AMG‐8718], the “retinal pathology in the rat” value [1] is listed as “retinal degeneration” and the “CatD selectivity in vitro” value [2] is listed as > 3,000 fold.
In the case of `C[C@@]1(c2cc(-c3cncnc3)c(F)cc2F)CCSC(N)=N1` [LY2811376], the “retinal pathology in the rat” value [1] is listed as “retinal degeneration”.
For `Cc1cc(C#N)cnc1C(=O)Nc1ccc(F)c([C@]2(C)CO[C@@](C)(C(F)(F)F)C(N)=N2)c1` [NB‐360], the “start of hair depigmentation” value ([3]; C57/BL6 mice) was 2–3 weeks, the “% Aβ40 in brain relative to vehicle alone” value ([3]; Dose 9 mg/kg) was 66% and the “% Aβ40 in brain relative to vehicle alone” value ([3]; Dose 45 mg/kg) was 32%. The “hair depigmentation / change in hair color” value ([3]; male C57/BL6 mice, 8 weeks oral once daily) was “obvious hair depigmentation in all mice” and the CMH events [4] was “No CMH events were observed”.
For `CN1C(=N)N[C@](C)(c2cc(NC(=O)c3ccc(F)cn3)ccc2F)CS1(=O)=O` [verubecestat], the CMH events [4] is listed as “No CMH events were observed”.

Source: PMC6220303 (EMBO Molecular Medicine, 2018)
